Data taken from patent US4585859A, “Analogues of morpholinyl daunorubicin and morpholinyl doxorubicin” (priority 1984, dated 1986).
Several values for one entry are separate records, joined by “and”; a condition that tells them apart may be missing. Equal values may be shown once. Read-outs that look alike come from different tables or passages of the source.

What was measured:
[1] = system: Lymphocyte Leukemia P-388; test: Survival time of mice inoculated i.p. with Lymphocyte Leukemia P-388, treated days 5, 9 and 13 (Table A); format: in vivo, mouse
[2] = system: RNA synthesis in L 1210 Cells; test: Inhibition of RNA synthesis in L 1210 Cells; format: cell-based, mouse
[3] = system: DNA synthesis in L 1210 Cells; test: Inhibition of DNA synthesis in L 1210 Cells; format: cell-based, mouse
[4] = prior art; cited from earlier work
DNA = conditions: cited from earlier work
mouse leukemia P388 = conditions: cited from earlier work; for activity in mouse leukemia P388 screen / dose requirement in P388 screen: 3-dose schedule q4d 5,9,13
B-16 Melanoma = test: Mouse antitumor efficacy vs B-16 Melanoma (Table B)
P-388 leukemia = test: Mouse antitumor efficacy vs P-388 leukemia (Table B)
[5] = P-388 in mice, q4d 5,9,13, at optimum dose
[6] = Mus musculus, L1210, L-1210 cells, RNA synthesis, read-out: Leukemia L-1210 Cells Inhibition of Synthesis ED50, RNA
[7] = Mus musculus, L1210, L-1210 cells, DNA synthesis, read-out: Leukemia L-1210 Cells Inhibition of Synthesis ED50, DNA
[8] = Mus musculus, L1210, read-out: Leukemia L-1210 Cells Inhibition of Synthesis ED50, DNA
[9] = Mus musculus, L1210, read-out: Leukemia L-1210 Cells Inhibition of Synthesis ED50, RNA

COc1cccc2c1C(=O)c1c(O)c3c(c(O)c1C2=O)C[C@@](O)(C(C)=O)C[C@@H]3O[C@H]1C[C@H](N2CCSCC2)[C@H](O)[C@H](C)O1
T/C vs mouse leukemia P388 ([1]; at 50 mg/kg (thiomorpholino) or 8 mg/kg (doxorubicin)): 169% | dose required vs mouse leukemia P388 ([1]; dose for the T/C quoted): 50 mg/kg

COc1cccc2c1C(=O)c1c(O)c3c(c(O)c1C2=O)C[C@@](O)(C(=O)CO)C[C@@H]3O[C@H]1C[C@H](N2C(=O)COCC2C#N)[C@H](O)[C@H](C)O1 (some centres unmarked) [3'-deamino-3'-(3"-cyano-5"-oxo-4"-morpholinyl)-doxorubicin]
IC50 ([2]; l1210 cells, read-out: Leukemia L-1210 Cells Inhibition of Synthesis ED50, RNA): 30 nM | IC50 ([3]; l1210 cells, read-out: Leukemia L-1210 Cells Inhibition of Synthesis ED50, DNA): 50 nM

COc1cccc2c1C(=N)c1c(O)c3c(c(O)c1C2=O)C[C@@](O)(C(C)=O)C[C@@H]3O[C@H]1C[C@H](N)[C@H](O)[C@H](C)O1 [5-Iminodaunorubicin]
antitumor activity, side effects and dosage [4]: retained activity with reduced side effects

COc1cccc2c1C(=N)c1c(O)c3c(c(O)c1C2=O)C[C@@](O)(C(=O)CO)C[C@@H]3O[C@H]1C[C@H](N)[C@H](O)[C@H](C)O1 [5-iminodoxorubicin]
antitumor activity, side effects and dosage [4]: showed enhanced activity but required higher dosages

CCCCC(=O)OCC(=O)[C@]1(O)Cc2c(O)c3c(c(O)c2[C@@H](O[C@H]2C[C@H](NC(=O)C(F)(F)F)[C@H](O)[C@H](C)O2)C1)C(=O)c1c(OC)cccc1C3=O [AD32]
interaction with DNA in vitro (DNA): fail to interact with DNA in vitro | activity in mouse leukemia P388 screen (mouse leukemia P388): most active new analogues so far | dose requirement in P388 screen (mouse leukemia P388): required significantly higher doses

COc1cccc2c1C(=O)c1c(O)c3c(c(O)c1C2=O)C[C@@](O)(C(C)=O)C[C@@H]3O[C@H]1C[C@H](N(Cc2ccccc2)Cc2ccccc2)[C@H](O)[C@H](C)O1 [N,N-dibenzyldaunorubicin]
interaction with DNA in vitro (DNA): fail to interact with DNA in vitro | activity in mouse leukemia P388 screen (mouse leukemia P388): most active new analogues so far | dose requirement in P388 screen (mouse leukemia P388): required significantly higher doses

COc1cccc2c1C(=O)c1c(O)c3c(c(O)c1C2=O)C[C@@](O)(C(C)O)C[C@@H]3O[C@H]1C[C@H](N2CCOCC2)[C@H](O)[C@H](C)O1 (some centres unmarked) [NSC 327450, 3'-deamino-3'-(4"-morpholinyl)-13-dihydrodaunorubicin]
Survival Time, % T/C [1, 5]: 132% | IC50 [2, 6]: 670 nM | Mouse Antitumor Efficacy at Optimum Dose, % T/C (B-16 Melanoma; section "ip B16", d 1, ip): 121% | IC50 [3, 7]: 2200 nM

COc1cccc2c1C(=O)c1c(O)c3c(c(O)c1C2=O)C[C@@](O)(C(C)=O)C[C@@H]3O[C@H]1C[C@H](N2CCOCC2)[C@H](O)[C@H](C)O1 [NSC 327451, 3'-deamino-3'-(4"-morpholinyl)daunorubicin]
Mouse Antitumor Efficacy at Optimum Dose, % T/C (P-388 leukemia; ip P388, d 1, ip): 155% | Optimum Dose (P-388 leukemia; ip P388, d 1, ip): 0.25 mg/kg | Mouse Antitumor Efficacy at Optimum Dose, % T/C (P-388 leukemia; ip P388, d 1, iv): 152% | Optimum Dose (P-388 leukemia; ip P388, d 1, iv): 0.5 mg/kg | active dose relative to the dose of doxorubicin (mouse leukemia P388; prior art, P388): one-fortieth the dose of doxorubicin | T/C value against P388 (mouse leukemia P388; prior art, U.S. Pat. No. 4,301,277): 166% | Survival Time, % T/C [1, 5]: 166% | IC50 [2, 6]: 100 nM | Mouse Antitumor Efficacy at Optimum Dose, % T/C (B-16 Melanoma; section "ip B16", d 1, ip): 135% | IC50 [3, 7]: 760 nM

COc1cccc2c1C(=O)c1c(O)c3c(c(O)c1C2=O)C[C@@](O)(C(C)=O)C[C@@H]3O[C@H]1C[C@H](N2CCOCC2C#N)[C@H](O)[C@H](C)O1 (some centres unmarked) [NSC 332304, 3'-deamino-3'-(3"-cyano-4"-morpholinyl)daunorubicin]
Mouse Antitumor Efficacy at Optimum Dose, % T/C (P-388 leukemia; ip P388, d 1, ip): 175% | Optimum Dose (P-388 leukemia; ip P388, d 1, ip): 0.25 mg/kg | Mouse Antitumor Efficacy at Optimum Dose, % T/C (P-388 leukemia; ip P388, d 1, iv): 157% | Optimum Dose (P-388 leukemia; ip P388, d 1, iv): 0.5 mg/kg | Survival Time, % T/C [1, 5]: 197% | inhibition of RNA vs DNA synthesis [2]: much more inhibitory toward RNA synthesis than toward DNA synthesis | Mouse Antitumor Efficacy at Optimum Dose, % T/C (B-16 Melanoma; section "ip B16", d 1, ip): 138% | IC50 [3, 8]: 12 nM

COc1cccc2c1C(=O)c1c(O)c3c(c(O)c1C2=O)C[C@@](O)(C(C)O)C[C@@H]3O[C@H]1C[C@H](N2CCOCC2C#N)[C@H](O)[C@H](C)O1 (some centres unmarked) [NSC 332305, 3'-deamino-3'-(3"-cyano-4"-morpholinyl)-13-dihydrodaunorubicin]
Survival Time, % T/C [1, 5]: 143% | inhibition of RNA vs DNA synthesis [2]: much more inhibitory toward RNA synthesis than toward DNA synthesis | Mouse Antitumor Efficacy at Optimum Dose, % T/C (B-16 Melanoma; section "ip B16", d 1, ip): 131% | IC50 [3, 8]: 19 nM

COc1cccc2c1C(=O)c1c(O)c3c(c(O)c1C2=O)C[C@@](O)(C(C)=O)C[C@@H]3O[C@H]1C[C@H](N2CCC(OC)CC2)[C@H](O)[C@H](C)O1 [NSC 334353, 3-deamino-3'-(4"-methoxy-1"-piperidinyl)-daunorubicin]
Survival Time, % T/C [1, 5]: 199% | IC50 [2, 9]: 120 nM | IC50 [3, 8]: 630 nM

COc1cccc2c1C(=O)c1c(O)c3c(c(O)c1C2=O)C[C@@](O)(C(C)O)C[C@@H]3O[C@H]1C[C@H](N2CCC(OC)CC2)[C@H](O)[C@H](C)O1 (some centres unmarked) [NSC 334354, 3'-deamino-3'-(4'-methoxy-1-piperidinyl)-13-dihydrodaunorubicin]
Survival Time, % T/C [1, 5]: 199% | IC50 [2, 6]: 80 nM | IC50 [3, 7]: 580 nM

COc1cccc2c1C(=O)c1c(O)c3c(c(O)c1C2=O)C[C@@](O)(C(=O)CO)C[C@@H]3O[C@H]1C[C@H](N2CCOCC2)[C@H](O)[C@H](C)O1 [NSC 354646, 3'-deamino-3'-(4"-morpholinyl)doxorubicin]
Mouse Antitumor Efficacy at Optimum Dose, % T/C (P-388 leukemia; ip P388, d 1, ip): 182% | Optimum Dose (P-388 leukemia; ip P388, d 1, ip): 0.05 mg/kg | Mouse Antitumor Efficacy at Optimum Dose, % T/C (P-388 leukemia; ip P388, d 1, iv): > 143% | Optimum Dose (P-388 leukemia; ip P388, d 1, iv): 0.062 mg/kg | Mouse Antitumor Efficacy at Optimum Dose, % T/C (P-388 leukemia; ip P388, q4d 1,5,9, ip): 224% | Optimum Dose (P-388 leukemia; ip P388, q4d 1,5,9, ip): 0.05 mg/kg | Mouse Antitumor Efficacy at Optimum Dose, % T/C (P-388 leukemia; ip P388, q4d 1,5,9, po): 175% | Optimum Dose (P-388 leukemia; ip P388, q4d 1,5,9, po): 0.05 mg/kg | Mouse Antitumor Efficacy at Optimum Dose, % T/C (P-388 leukemia; ip P388, qd 1-9, ip): 209% | Optimum Dose (P-388 leukemia; ip P388, qd 1-9, ip): 0.0125 mg/kg

COc1cccc2c1C(=N)c1c(O)c3c(c(O)c1C2=O)C[C@@](O)(C(=O)CO)C[C@@H]3O[C@H]1C[C@H](N2CCOCC2)[C@H](O)[C@H](C)O1 [NSC 355277, 3'-deamino-3'-(4"-morpholinyl)-5-iminodoxorubicin]
Mouse Antitumor Efficacy at Optimum Dose, % T/C (P-388 leukemia; ip P388, d 1, ip): > 193% | Optimum Dose (P-388 leukemia; ip P388, d 1, ip): 2 mg/kg | Mouse Antitumor Efficacy at Optimum Dose, % T/C (P-388 leukemia; ip P388, d 1, iv): 166% | Optimum Dose (P-388 leukemia; ip P388, d 1, iv): 2.5 mg/kg

COc1cccc2c1C(=N)c1c(O)c3c(c(O)c1C2=O)C[C@@](O)(C(O)CO)C[C@@H]3O[C@H]1C[C@H](N2CCOCC2)[C@H](O)[C@H](C)O1 (some centres unmarked) [NSC 355465, 3'-deamino-3'-(4"-morpholinyl)-5-imino-13-dihydrodoxorubicin]
Survival Time, % T/C [1, 5]: 161% | IC50 [2, 9]: 24000 nM | IC50 [3, 8]: > 100000 nM

COc1cccc2c1C(=O)c1c(O)c3c(c(O)c1C2=O)C[C@@](O)(C(=O)CO)C[C@@H]3O[C@H]1C[C@H](N2CCOCC2C#N)[C@H](O)[C@H](C)O1 (some centres unmarked) [NSC 357704, 3'-deamino-3'-(3"-cyano-4"-morpholinyl)doxorubicin]
Mouse Antitumor Efficacy at Optimum Dose, % T/C (P-388 leukemia; mouse, in vivo): 152% and > 158% | Optimum Dose (P-388 leukemia; mouse, in vivo): 0.05 mg/kg and 0.1 mg/kg | Mouse Antitumor Efficacy at Optimum Dose, % T/C (P-388 leukemia; mouse, in vivo, ip): 262% and > 360% | Optimum Dose (P-388 leukemia; mouse, in vivo, ip): 0.0125 mg/kg and 0.0063 mg/kg | Mouse Antitumor Efficacy at Optimum Dose, % T/C (B-16 Melanoma; mouse, in vivo, ip): > 138% and 123%

COc1cccc2c1C(=O)c1c(O)c3c(c(O)c1C2=O)C[C@@](O)(C(O)CO)C[C@@H]3O[C@H]1C[C@H](N2CCOCC2C#N)[C@H](O)[C@H](C)O1 (some centres unmarked) [NSC 360291, 3'-deamino-3'-(3"-cyano-4"-morpholinyl)-13-dihydrodoxorubicin]
Mouse Antitumor Efficacy at Optimum Dose, % T/C (P-388 leukemia; mouse, in vivo, ip): 183% and 267% | Optimum Dose (P-388 leukemia; mouse, in vivo, ip): 0.05 mg/kg and 0.025 mg/kg | Survival Time, % T/C [1, 5]: 150% | Mouse Antitumor Efficacy at Optimum Dose, % T/C (B-16 Melanoma; mouse, in vivo, ip): 149% and 121%

COc1cccc2c1C(=O)c1c(O)c3c(c(O)c1C2=O)C[C@@](O)(C(C)=O)C[C@@H]3O[C@H]1C[C@H](N)[C@H](O)[C@H](C)O1 [daunorubicin]
Survival Time, % T/C ([1]; mouse, in vivo): 130% | IC50 [2, 9]: 330 nM | Mouse Antitumor Efficacy at Optimum Dose, % T/C (B-16 Melanoma; mouse, in vivo, ip): 195% | IC50 [3, 8]: 660 nM
